Results: patent publication US20250262179A1, “PHARMACEUTICAL COMPOSITION FOR PREVENTING AND/OR TREATING AUTOIMMUNE DISEASES” (NATIONAL CENTER FOR CHILD HEALTH AND DEVELOPMENT, priority 2022, published 2025)

Test system: collagen-induced arthritis (CIA) model rats
Assay: Collagen-induced arthritis (CIA) model: foot volume and arthritis score
Format: in vivo, DA/Slc rats
Experimental: For 9 weeks-old female DA/Slc rats, under isoflurane anesthesia employing a simplified inhalation anesthesia device for animals (model type: NARCOBIT-E (type II), Natsume Seisakusho Co., Ltd.), the tail root which is the administration site was shaved with an electric shaver, and 0.05 mL in each of left and right sides of the tail root of all animals for a total of 0.1 mL of the symptom evoking substance administration fluid was intracutaneously administrated with a syringe (Terumo Corporation) and an injection needle (Terumo Corporation). The symptom evoking substance administration fluid was prepared by adding bovine type-II collagen and an equal amount of Incomplete Freund Adjuvant to an interchangeable glass syringe (TOP Corporation), and then mixing well.
The symptom evoking substance was administered only on Day 0, and each test substance was administered before the administration of the symptom evoking substance on the first day. MTX was suspended in 0.5 w/v % methylcellulose 400 solution (MC). ALA employed was aminolevulinic acid hydrochloride, and weights shown below are weights as aminolevulinic acid hydrochloride. […]
For measurement of foot volume, the foot volumes of left and right posterior limbs were each measured on Days 0 (before grouping), 4, 7, 11, 14, and 18 with a Plethysmometer (model type: MK-101P, Muromachi Kikai Co., Ltd.). The foot volume was measured three times per foot, and the average value of the three was calculated. The foot volume of the other foot was similarly measured. The foot volume measurement value of one individual was calculated with the following mathematical formula. […]
The measurement value before grouping was set as the Pre-value and the measurement value at each measurement point after grouping was set as the Post-value, and the value of increase in foot volume (A mL) was calculated by Post-value-Pre-value for each individual.
The arthritis score measurement was measured on each of Days 0 (before grouping), 4, 7, 11, 14, and 18. […] Note that the total sum of left and right arthritis scores was calculated as the score for that individual. […]

[1] = Day 18, oral once a day for 18 days, MTX 0.02 mg/kg, ALA 100 mg/kg, SFC 157 mg/kg

## CN(Cc1cnc2nc(N)nc(N)c2n1)c1ccc(C(=O)N[C@@H](CCC(=O)O)C(=O)O)cc1 [MTX, (S)-2-(4-(((2,4-diaminopteridin-6-yl)methyl)methylamino)benzamido) pentanedioic acid]
[1]
  intergroup difference to Group 5 (control) in arthritis score: 1.5
  intergroup difference to Group 5 (control) in value of increase in foot volume: 0.16 mL
Group 1, only MTX 0.02 mg/kg oral daily
  anti-inflammatory effect in CIA model rats: a certain level of anti-inflammatory effect was seen
